Key:
[1] = target: T1, Signal transducer and activator of transcription 5A (Homo sapiens, UniProt P42229); assay: Fluorescence Polarization Assay
T1 sequence (P42229 whole entry): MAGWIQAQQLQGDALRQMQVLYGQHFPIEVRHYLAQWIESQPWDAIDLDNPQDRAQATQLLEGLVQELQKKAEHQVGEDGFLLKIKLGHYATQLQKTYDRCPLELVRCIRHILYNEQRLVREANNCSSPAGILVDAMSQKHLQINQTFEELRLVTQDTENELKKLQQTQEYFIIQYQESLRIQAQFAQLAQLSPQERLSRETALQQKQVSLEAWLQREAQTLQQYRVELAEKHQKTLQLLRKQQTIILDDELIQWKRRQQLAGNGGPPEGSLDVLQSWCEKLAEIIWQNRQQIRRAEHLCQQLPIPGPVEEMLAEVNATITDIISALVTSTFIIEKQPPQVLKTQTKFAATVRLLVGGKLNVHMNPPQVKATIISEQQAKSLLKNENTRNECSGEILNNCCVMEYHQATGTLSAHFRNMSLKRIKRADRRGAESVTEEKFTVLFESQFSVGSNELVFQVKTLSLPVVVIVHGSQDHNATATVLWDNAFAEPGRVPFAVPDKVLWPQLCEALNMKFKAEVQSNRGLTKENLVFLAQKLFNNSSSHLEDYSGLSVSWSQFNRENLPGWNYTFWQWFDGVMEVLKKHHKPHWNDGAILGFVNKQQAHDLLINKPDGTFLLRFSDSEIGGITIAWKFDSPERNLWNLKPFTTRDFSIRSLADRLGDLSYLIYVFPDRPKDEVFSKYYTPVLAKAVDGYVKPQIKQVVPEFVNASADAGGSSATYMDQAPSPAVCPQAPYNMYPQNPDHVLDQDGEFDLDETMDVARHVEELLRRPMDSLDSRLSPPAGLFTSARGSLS
Description: (§1) For competition-based fluorescence polarization assays, the ability of the test compounds to displace fluorophore-labeled peptides from their respective binding proteins was analyzed as previously described.3 Peptide sequences were: STAT1: 5-carboxyfluorescein-GY(PO3H2)DKPHVL; STAT3: 5-carboxyfluorescein-GY(PO3H2)LPQTV-NH2; STAT4: 5-carboxyfluorescein-GY(PO3H2)LPQNID-OH; STAT5a and STAT5b: 5-carboxyfluorescein-GY(PO3H2)LVLDKW; STAT6: 5-carboxyfluorescein-GY(PO3H2)VPWQDLI-OH; Lck SH2: 5-carboxyfluorescein-GY(PO3H2)EEIP. Due to protein instability, STAT2 was not analyzed. Final concentration of 5-carboxyfluorescein-labeled peptides: 10 nM. […] Pipetting was carried out partly using a Biomek FX workstation (Beckman-Coulter). Pr

[2] = target: T2, Signal transducer and activator of transcription 5B (Homo sapiens, UniProt P51692); assay: Fluorescence Polarization Assay
T2 sequence (P51692 whole entry): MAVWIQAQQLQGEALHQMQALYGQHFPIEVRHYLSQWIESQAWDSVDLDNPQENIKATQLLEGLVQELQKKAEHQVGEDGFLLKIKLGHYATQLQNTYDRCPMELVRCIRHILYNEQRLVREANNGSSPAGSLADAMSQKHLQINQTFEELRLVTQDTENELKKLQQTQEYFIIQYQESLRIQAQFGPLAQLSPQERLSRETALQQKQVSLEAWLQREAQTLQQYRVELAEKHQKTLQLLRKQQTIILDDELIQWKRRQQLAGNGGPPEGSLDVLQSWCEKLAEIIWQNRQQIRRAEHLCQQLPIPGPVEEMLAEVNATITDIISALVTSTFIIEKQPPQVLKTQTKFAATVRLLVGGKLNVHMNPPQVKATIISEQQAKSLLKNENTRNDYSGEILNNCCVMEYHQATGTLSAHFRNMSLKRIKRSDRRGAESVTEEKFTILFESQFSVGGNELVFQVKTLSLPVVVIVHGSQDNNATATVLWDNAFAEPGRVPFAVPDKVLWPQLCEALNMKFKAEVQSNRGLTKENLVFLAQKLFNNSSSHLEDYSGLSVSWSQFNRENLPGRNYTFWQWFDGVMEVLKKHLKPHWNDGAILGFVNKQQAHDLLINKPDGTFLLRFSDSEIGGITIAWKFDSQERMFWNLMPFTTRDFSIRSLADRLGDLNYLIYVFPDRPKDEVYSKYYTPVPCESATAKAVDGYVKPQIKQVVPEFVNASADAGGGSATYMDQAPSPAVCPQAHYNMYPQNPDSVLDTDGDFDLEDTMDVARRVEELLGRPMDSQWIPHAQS
Description: as §1

Compound | IC50 [1] [µM] | Ki [1] [µM] | IC50 [2] [µM] | Ki [2] [µM]
CCCCCCCCC(=O)NCc1ccc(OP(=O)(O)O)c(OP(=O)(O)O)c1 [4-(Nonanamidomethyl)-1,2-phenylene bis(dihydrogen phosphate) (6b)] | 24.9 | 12.3 | 0.86 | 0.39
COc1cc(CNC(=O)CCCCCCC(C)C)ccc1OP(=O)(O)O [2-Methoxy-4-((8-methylnonanamido)methyl)phenyl dihydrogen phosphate (3a)] | 152 | 75 |  | 
CC(C)CCCCCCC(=O)NCc1ccc(OP(=O)(O)O)c(OP(=O)(O)O)c1 [4-((8-Methylnonanamido)methyl)-1,2-phenylene bis(dihydrogen phosphate) (6a)] | 26.4 | 13 | 0.75 | 0.34
CCCCCCCCC(=O)NCc1ccc(OP(=O)(O)O)c(OC)c1 [2-Methoxy-4-(nonanamidomethyl)phenyl dihydrogen phosphate (3b)] | 98 | 49 | 196 | 96

Source: BindingDB's records for doi:10.1021/acschembio.5b00817 (University of Leipzig, 2015)
